Measured values reported in ChEMBL document CHEMBL1201862, “PubChem BioAssay data set” (2004).
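Five compound concentrations were applied to cells in 96-well plates for 48 hours; endpoints were derived by simple linear interpolation of the resulting dose-response curve. GI50: concentration for 50% inhibition of growth.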 Active and inactive are the calls of the source. Rule as the data show it: active = GI50 up to about 1.1 µM and inactive = higher.

Experiments:
Test in all cases: growth of human tumour cells (NCI), 48 h
KM-20L2 = system: KM-20L2
SNB-19 = system: SNB-19
KM12 = system: KM12
A498 = system: A498
A549 = system: A549
HCT-116 = system: HCT-116
UACC-257 = system: UACC-257
RXF 393 = system: RXF 393
HCC 2998 = system: HCC 2998
K562 = system: K562
ACHN = system: ACHN
786-0 = system: 786-0
HT-29 = system: HT-29
OVCAR-5 = system: OVCAR-5
MOLT-4 = system: MOLT-4
CCRF-CEM = system: CCRF-CEM
OVCAR-3 = system: OVCAR-3
COLO 205 = system: COLO 205
SK-MEL-2 = system: SK-MEL-2
M19-MEL = system: M19-MEL
SW-620 = system: SW-620
HOP-92 = system: HOP-92
DMS-114 = system: DMS-114
DMS-273 = system: DMS-273
NCI-H226 = system: NCI-H226
NCI-H23 = system: NCI-H23
U-251 = system: U-251
OVCAR-4 = system: OVCAR-4
NCI-H460 = system: NCI-H460
OVCAR-8 = system: OVCAR-8
LOX IMVI = system: LOX IMVI
LXFL 529 = system: LXFL 529
UO-31 = system: UO-31
SF-539 = system: SF-539
NCI-H522 = system: NCI-H522
SNB-78 = system: SNB-78
SK-MEL-5 = system: SK-MEL-5
SF-268 = system: SF-268
HOP-62 = system: HOP-62
RPMI-8226 = system: RPMI-8226
TK-10 = system: TK-10
DLD-1 = system: DLD-1
M14 = system: M14
EKVX = system: EKVX
Malme-3M = system: Malme-3M
SF-295 = system: SF-295
SNB-75 = system: SNB-75
SN12C = system: SN12C
SR = system: SR
SK-OV-3 = system: SK-OV-3
SK-MEL-28 = system: SK-MEL-28
UACC-62 = system: UACC-62
CAKI-1 = system: CAKI-1
IGROV-1 = system: IGROV-1
HL-60 = system: HL-60

Measured: GI50

NC(=O)c1ncn(C2OC(CO)C(O)C2O)c1NC(=S)NC(=O)c1ccccc1 (stereo not given)
inactive: KM-20L2 > 100 µM | SNB-19 > 100 µM | KM12 > 100 µM | A498 > 100 µM | A549 > 100 µM | HCT-116 > 100 µM | UACC-257 > 100 µM | RXF 393 > 100 µM | HCC 2998 > 100 µM | K562 > 100 µM | ACHN > 100 µM | 786-0 > 100 µM | HT-29 > 100 µM | OVCAR-5 > 100 µM | MOLT-4 > 100 µM | CCRF-CEM > 100 µM | OVCAR-3 > 100 µM | COLO 205 > 100 µM | SK-MEL-2 > 100 µM | M19-MEL > 100 µM | SW-620 > 100 µM | HOP-92 > 100 µM | DMS-114 > 100 µM | DMS-273 > 100 µM | NCI-H226 > 100 µM | NCI-H23 > 100 µM | U-251 > 100 µM | OVCAR-4 > 100 µM | NCI-H460 > 100 µM | OVCAR-8 > 100 µM | LOX IMVI > 100 µM | LXFL 529 > 100 µM | UO-31 > 100 µM | SF-539 > 100 µM | NCI-H522 > 100 µM | SNB-78 > 100 µM | SK-MEL-5 > 100 µM | SF-268 > 100 µM | HOP-62 > 100 µM | RPMI-8226 > 100 µM | TK-10 > 100 µM | DLD-1 > 100 µM | M14 > 100 µM | EKVX > 100 µM | Malme-3M > 100 µM | SF-295 > 100 µM | SNB-75 > 100 µM | SN12C > 100 µM | SR > 100 µM | SK-OV-3 > 100 µM | SK-MEL-28 > 100 µM | UACC-62 > 100 µM | CAKI-1 > 100 µM | IGROV-1 > 100 µM | HL-60 > 100 µM
